Columns and labels:
[1] = target: T1, Acetylcholinesterase (Electrophorus electricus, UniProt O42275); assay: Inhibition of electric eel AChE using acetylthiocholine iodide as substrate incubated for 30 mins by Ellman's method
[2] = target: T1, Acetylcholinesterase; assay: Binding affinity to electric eel AChE assessed as inhibition constant using acetylthiocholine iodide as substrate incubated for 30 mins by Ellman's method
[3] = target: T2, Cholinesterase (Equus caballus, UniProt P81908); assay: Inhibition of equine BChE
[4] = Selectivity index, ratio of IC50 for electric eel AChE to IC50 for equine BChE
[5] = target: T1, Acetylcholinesterase; assay: Inhibition of electric eel AChE
[6] = target: T3, Acetylcholinesterase (Homo sapiens, UniProt P22303); assay: Inhibition of human AChE
[7] = target: T4, Cholinesterase (Homo sapiens, UniProt P06276); assay: Inhibition of human BChE
[8] = target: T4, Cholinesterase; assay: Inhibition of BChE (unknown origin)
[9] = target: T5, Cholinesterases; ACHE & BCHE (Homo sapiens) (UniProt P06276+P22303); assay: Selectivity index, ratio of IC50 for AChE (unknown origin) to BChE (unknown origin); format: protein assay
[10] = target: T5, Cholinesterases; ACHE & BCHE (Homo sapiens); assay: Selectivity index, ratio of IC50 for recombinant human serum BChE to IC50 for recombinant human serum AChE; format: protein assay
[11] = target: T2, Cholinesterase; assay: Inhibition of equine BChE using acetylthiocholine iodide as substrate preincubated for 10 mins followed by substrate addition by Ellman's method
[12] = target: T3, Acetylcholinesterase; assay: Inhibition of recombinant human AChE
[13] = target: T6, Amine oxidase [flavin-containing] B (Homo sapiens, UniProt P27338); assay: Inhibition of MAO-B (unknown origin)
T6 sequence (P27338 whole entry): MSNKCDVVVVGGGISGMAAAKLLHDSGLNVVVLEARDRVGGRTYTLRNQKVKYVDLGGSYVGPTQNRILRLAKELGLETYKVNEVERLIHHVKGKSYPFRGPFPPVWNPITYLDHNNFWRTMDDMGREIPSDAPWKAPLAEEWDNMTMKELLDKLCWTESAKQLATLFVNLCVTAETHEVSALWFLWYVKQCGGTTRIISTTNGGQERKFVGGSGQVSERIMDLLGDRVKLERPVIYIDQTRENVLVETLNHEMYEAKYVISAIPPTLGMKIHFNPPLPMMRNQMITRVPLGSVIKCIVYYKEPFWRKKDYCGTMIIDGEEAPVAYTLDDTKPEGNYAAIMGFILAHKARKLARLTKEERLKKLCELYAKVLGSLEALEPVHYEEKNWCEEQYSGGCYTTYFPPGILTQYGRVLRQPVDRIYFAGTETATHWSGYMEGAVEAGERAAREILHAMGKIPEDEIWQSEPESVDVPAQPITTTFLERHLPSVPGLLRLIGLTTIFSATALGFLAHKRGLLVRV

[14] = target: T7, Amine oxidase [flavin-containing] A (Homo sapiens, UniProt P21397); assay: Inhibition of MAO-A (unknown origin)
T7 sequence (P21397 whole entry): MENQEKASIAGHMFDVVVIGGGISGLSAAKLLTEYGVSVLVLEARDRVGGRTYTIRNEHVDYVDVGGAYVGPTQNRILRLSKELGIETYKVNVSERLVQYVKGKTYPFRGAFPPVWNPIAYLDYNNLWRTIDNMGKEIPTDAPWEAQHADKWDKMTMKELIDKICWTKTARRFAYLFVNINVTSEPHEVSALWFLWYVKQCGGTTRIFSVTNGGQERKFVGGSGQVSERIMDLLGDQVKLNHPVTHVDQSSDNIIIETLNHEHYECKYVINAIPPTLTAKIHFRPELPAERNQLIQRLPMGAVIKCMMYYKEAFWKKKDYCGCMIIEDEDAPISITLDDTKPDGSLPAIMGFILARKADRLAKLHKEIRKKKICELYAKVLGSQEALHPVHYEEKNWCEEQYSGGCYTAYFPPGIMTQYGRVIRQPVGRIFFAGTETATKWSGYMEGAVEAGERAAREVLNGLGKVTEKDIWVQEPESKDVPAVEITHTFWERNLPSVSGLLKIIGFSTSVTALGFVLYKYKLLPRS

[15] = target: T8, Acetylcholinesterase (Rattus norvegicus, UniProt P37136); assay: Inhibition of Sprague-Dawley rat cortex AChE using acetylthiocholine iodide as substrate incubated for 15 mins in presence of iso-OMPA inhibitor by Ellman's method
T8 sequence (P37136 whole entry): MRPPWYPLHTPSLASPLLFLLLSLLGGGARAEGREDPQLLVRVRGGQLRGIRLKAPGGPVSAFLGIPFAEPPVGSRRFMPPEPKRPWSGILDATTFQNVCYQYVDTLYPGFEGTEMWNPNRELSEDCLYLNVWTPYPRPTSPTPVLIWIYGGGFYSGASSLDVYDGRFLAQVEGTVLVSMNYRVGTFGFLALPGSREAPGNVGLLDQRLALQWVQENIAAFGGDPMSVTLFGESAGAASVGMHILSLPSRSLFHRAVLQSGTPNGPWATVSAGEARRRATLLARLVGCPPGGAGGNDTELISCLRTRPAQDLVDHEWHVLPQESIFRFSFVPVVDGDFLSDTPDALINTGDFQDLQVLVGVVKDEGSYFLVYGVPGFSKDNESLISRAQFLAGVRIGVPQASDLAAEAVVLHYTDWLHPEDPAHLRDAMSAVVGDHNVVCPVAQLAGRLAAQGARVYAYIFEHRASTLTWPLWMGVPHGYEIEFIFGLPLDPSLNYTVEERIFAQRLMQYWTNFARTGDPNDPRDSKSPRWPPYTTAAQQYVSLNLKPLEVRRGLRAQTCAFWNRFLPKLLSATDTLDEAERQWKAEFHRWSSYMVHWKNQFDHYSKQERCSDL

[16] = target: T3, Acetylcholinesterase; assay: Inhibition of AChE (unknown origin)
[17] = target: T3, Acetylcholinesterase
Description: Inhibition of human erythrocyte AChE using acetylthiocholine iodide as substrate preincubated for 30 mins followed by substrate addition measured after 5 mins by Ellman's method

[18] = target: T4, Cholinesterase; assay: Inhibition of human serum BChE using butyrylthiocholine as substrate by Ellman's method
[19] = target: T5, Cholinesterases; ACHE & BCHE (Homo sapiens); assay: Selectivity index, ratio of IC50 for human AChE to IC50 for human BChE; format: protein assay
[20] = target: T8, Acetylcholinesterase; assay: Inhibition of rat AChE

T4 sequence (P06276 whole entry): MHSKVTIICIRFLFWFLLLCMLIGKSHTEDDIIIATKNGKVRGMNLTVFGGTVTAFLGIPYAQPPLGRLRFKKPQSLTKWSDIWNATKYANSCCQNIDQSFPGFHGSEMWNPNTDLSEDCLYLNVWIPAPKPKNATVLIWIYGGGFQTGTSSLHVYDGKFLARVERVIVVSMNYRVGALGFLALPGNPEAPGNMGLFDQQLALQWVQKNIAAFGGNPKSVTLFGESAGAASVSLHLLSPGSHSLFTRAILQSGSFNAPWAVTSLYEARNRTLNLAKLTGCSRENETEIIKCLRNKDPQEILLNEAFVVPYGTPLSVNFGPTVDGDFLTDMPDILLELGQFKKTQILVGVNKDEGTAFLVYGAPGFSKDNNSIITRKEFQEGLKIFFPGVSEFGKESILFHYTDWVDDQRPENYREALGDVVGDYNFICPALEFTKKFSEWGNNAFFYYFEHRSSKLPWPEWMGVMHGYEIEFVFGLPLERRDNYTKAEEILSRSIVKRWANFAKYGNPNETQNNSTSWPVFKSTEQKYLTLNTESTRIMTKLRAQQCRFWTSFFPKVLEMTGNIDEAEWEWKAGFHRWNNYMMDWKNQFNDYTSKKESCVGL
T5 sequence (P06276 whole entry, looked up): as the sequence (P06276 whole entry) above
T5 sequence (P22303 whole entry, looked up): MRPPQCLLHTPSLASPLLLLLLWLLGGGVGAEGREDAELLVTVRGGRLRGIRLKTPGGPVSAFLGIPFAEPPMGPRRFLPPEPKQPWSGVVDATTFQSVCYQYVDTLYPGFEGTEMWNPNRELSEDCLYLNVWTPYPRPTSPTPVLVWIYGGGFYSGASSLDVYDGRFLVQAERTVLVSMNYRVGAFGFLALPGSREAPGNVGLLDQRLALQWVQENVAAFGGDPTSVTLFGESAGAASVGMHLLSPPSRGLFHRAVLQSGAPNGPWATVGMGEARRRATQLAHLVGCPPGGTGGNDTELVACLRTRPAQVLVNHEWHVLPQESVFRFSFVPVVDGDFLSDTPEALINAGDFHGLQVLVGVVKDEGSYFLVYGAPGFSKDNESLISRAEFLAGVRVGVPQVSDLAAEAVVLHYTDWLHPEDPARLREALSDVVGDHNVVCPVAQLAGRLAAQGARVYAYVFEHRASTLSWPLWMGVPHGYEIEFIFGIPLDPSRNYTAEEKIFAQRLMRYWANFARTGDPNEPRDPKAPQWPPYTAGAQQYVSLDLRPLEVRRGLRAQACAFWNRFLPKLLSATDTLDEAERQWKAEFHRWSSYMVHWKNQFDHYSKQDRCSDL
T3 sequence (P22303 whole entry): as the sequence (P22303 whole entry, looked up) above
T2 sequence (P81908 whole entry): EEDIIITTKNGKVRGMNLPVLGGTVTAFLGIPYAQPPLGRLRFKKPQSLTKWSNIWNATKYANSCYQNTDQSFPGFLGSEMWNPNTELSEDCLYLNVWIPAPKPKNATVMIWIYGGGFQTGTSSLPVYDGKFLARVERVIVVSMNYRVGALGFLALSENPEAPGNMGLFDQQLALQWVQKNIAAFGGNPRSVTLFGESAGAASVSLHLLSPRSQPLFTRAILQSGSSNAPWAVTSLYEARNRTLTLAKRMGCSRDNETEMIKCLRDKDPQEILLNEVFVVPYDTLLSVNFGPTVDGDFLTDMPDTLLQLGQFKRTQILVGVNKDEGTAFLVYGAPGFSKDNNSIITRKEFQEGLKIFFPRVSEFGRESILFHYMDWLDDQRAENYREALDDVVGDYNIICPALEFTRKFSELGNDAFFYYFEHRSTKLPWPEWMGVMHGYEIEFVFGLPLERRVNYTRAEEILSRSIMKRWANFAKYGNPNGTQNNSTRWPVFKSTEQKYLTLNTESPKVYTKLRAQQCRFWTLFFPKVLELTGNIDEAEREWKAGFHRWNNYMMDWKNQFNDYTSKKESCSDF
T1 sequence (O42275 whole entry): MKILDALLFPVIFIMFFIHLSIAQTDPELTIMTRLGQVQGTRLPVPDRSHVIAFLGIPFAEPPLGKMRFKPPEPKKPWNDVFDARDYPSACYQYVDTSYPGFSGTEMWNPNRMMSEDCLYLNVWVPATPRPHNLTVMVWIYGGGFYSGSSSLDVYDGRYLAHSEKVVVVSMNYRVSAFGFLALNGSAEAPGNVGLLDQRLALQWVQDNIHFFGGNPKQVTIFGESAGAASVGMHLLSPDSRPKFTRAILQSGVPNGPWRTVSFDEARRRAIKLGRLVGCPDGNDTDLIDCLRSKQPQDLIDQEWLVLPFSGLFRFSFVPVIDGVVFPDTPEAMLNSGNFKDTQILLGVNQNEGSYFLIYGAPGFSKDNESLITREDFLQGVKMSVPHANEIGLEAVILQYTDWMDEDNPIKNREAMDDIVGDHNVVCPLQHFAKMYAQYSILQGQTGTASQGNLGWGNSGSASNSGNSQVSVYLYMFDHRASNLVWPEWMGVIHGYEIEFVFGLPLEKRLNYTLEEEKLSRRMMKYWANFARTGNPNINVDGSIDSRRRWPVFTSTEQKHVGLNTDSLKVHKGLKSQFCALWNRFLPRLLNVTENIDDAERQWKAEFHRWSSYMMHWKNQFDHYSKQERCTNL

COC(=O)CCC/C=C\C/C=C\C/C=C\CCOC(=O)Nc1ccc(Cl)cc1
IC50 [1]: 20.2 µM
Ki [2]: 2.62 µM

CCCCCCCNC(=O)Oc1ccc2[nH]cc(CCNC(=O)c3ccccc3Nc3ccccc3)c2c1
IC50 [3]: 0.007 µM
Ratio IC50 [4]: > 10000
IC50 [5]: > 100 µM

CCN1/C(=C/C(C)=O)Sc2ccc(OC(=O)OCCOCCNC(=O)c3cc4c(OC(=O)N(C)C)cccc4[n+](C)c3)cc21
IC50 [6]: 0.0814 µM
IC50 [7]: 0.482 µM

CCCCCCCNC(=O)Oc1ccc2c(c1)CN1CCc3ccc(/N=N\c4ccccc4)cc3C1N2C (stereo not given)
IC50 [8]: 0.0445 µM

CC(C)c1ccc(NC(=O)Oc2ccc3c(c2)[C@]2(C)CCN[C@@H]2N3)cc1
Ratio IC50 [9]: 110

CC(C)c1ccc(NC(=O)Oc2ccc3c(c2)C2(C)COC(C2)O3)cc1 (stereo not given)
Ratio IC50 [9]: 195

CNC(=O)Oc1cccc(CN(C)CCCCCCCOc2cccc(-c3cc(=O)c4ccccc4o3)c2)c1
Ratio IC50 [10]: 122

CCCCCCCNC(=O)OCn1nc(-c2ccccc2OC)ccc1=O
IC50 [11]: 12.8 µM

COC(=O)C1=CN([11CH3])c2cccc(OC(=O)N(C)C)c2C1
IC50 [6]: > 1000 µM

C#CCNC1CCc2c(OC(=O)N(C)C)cccc21 (stereo not given)
IC50 [12]: 86 µM
IC50 [13]: 0.26 µM
IC50 [14]: 0.053 µM

COc1cc(/C=C/c2ccc(OC(=O)N3CCN(C)CC3)cc2)cc(OC)c1
IC50 [15]: 8.58 µM

O=C1CCOc2cc(OCCCCCSC(=S)N3CCCCC3)ccc21
IC50 [12]: 0.1 µM

COC(=O)CCC/C=C\C/C=C\C/C=C\CCOC(=O)Nc1ccc(OC)cc1
IC50 [1]: 24.8 µM
Ki [2]: 3.48 µM

COC(=O)c1cc2c(OC(=O)N(C)C)cccc2[n+]([11CH3])c1
IC50 [6]: 0.02 µM

C#CCN[C@@H]1CCc2ccc(OC(=O)N(C)CC)cc21
IC50 [7]: 4.1 µM
IC50 [12]: 1000 µM
IC50 [13]: 2 µM
IC50 [14]: 0.77 µM

CN1c2ccc(OC(=O)NCC3CCCCC3)cc2[C@]2(C)CCN(CCc3ccccc3)[C@H]12
Ratio IC50 [9]: 1390
IC50 [16]: 2.5 µM

CC(C)C[C@@H](CS(=O)(=O)NCc1ccc(Cl)cc1)NC(=O)OCc1ccccc1
Ratio IC50 [4]: 10.3

C#CCN(C)C1CCc2cccc(OC(=O)N(C)C)c21 (stereo not given)
IC50 [12]: 730 µM
IC50 [13]: 0.33 µM
IC50 [14]: 7 µM

CN(CCCOc1ccc2c(=O)c3ccccc3oc2c1)Cc1cccc(OC(=O)NCCCCCCCCCN2CCOCC2)c1
IC50 [17]: 0.0089 µM
IC50 [18]: 0.0293 µM

CCN(C)C(=O)Oc1cc(OC(=O)N(C)CC)cc(C(O)CNC(C)(C)CC)c1 (stereo not given)
Ratio IC50 [4]: > 862

CCC(C)(C)NCC(O)c1cc(OC(=O)N(C)C)cc(OC(=O)N(C)C)c1 (stereo not given)
Ratio IC50 [4]: > 796

C#CCN(C)C1CCc2c(OC(=O)N(C)CC)cccc21 (stereo not given)
IC50 [7]: 14.9 µM
IC50 [12]: 4 µM
IC50 [13]: 0.027 µM
IC50 [14]: 0.79 µM

CN(C)C(=O)Oc1cccc(-c2coc3c4c(ccc3c2=O)OC(C)(C)C=C4)c1
IC50 [3]: 0.68 µM
Ratio IC50 [4]: 49.3
IC50 [5]: 33.6 µM

CCC(C)(C)NCC(O)c1cc(O)cc(OC(=O)N(C)C)c1 (stereo not given)
IC50 [6]: 20 µM
IC50 [7]: 0.05 µM
Ratio IC50 [19]: 400

O=c1ccc2ccc(OCCCCSC(=S)N3CCCCC3)cc2[nH]1
IC50 [3]: 0.16 µM

CC(C)c1ccc(NC(=O)Oc2ccc3c(c2)[C@]2(C)CCO[C@@H]2O3)cc1
IC50 [8]: 0.027 µM

COC(=O)CCC/C=C\C/C=C\C/C=C\CCOC(=O)Nc1cccc(Cl)c1
IC50 [1]: 16.8 µM
Ki [2]: 0.93 µM

CN1CC[C@@]2(C)c3cc(OC(=O)Nc4ccccc4)ccc3N(C)[C@@H]12
Ratio IC50 [9]: 65

COc1cc(/C=C/C(=O)NCCCCNC(=O)Oc2ccc3c(c2)CN2CCc4ccccc4C2N3C)ccc1O (stereo not given)
IC50 [8]: 0.102 µM

COc1ccccc1-c1ccc(=O)n(COC(=O)Nc2ccc(C)cc2)n1
IC50 [11]: 34.5 µM

O=C(Nc1cccc([N+](=O)[O-])c1)OCCNc1c2ccccc2nc2ccccc12
IC50 [3]: 0.017 µM
IC50 [5]: 0.0221 µM

O=C(Oc1cc(O)c2c(=O)cc(-c3ccc(O)cc3)oc2c1)N1CCCCC1
IC50 [6]: 62.5 µM
IC50 [7]: 0.094 µM
Ratio IC50 [19]: 665

CCCCCCCNC(=O)Oc1ccc(F)c(-c2coc3c4c(ccc3c2=O)OC(C)(C)C=C4)c1
IC50 [3]: 0.093 µM
Ratio IC50 [4]: 836
IC50 [5]: 77.8 µM

Cc1ccccc1NC(=O)Oc1ccc2c(c1)[C@]1(C)CCO[C@@H]1O2
IC50 [8]: > 30 µM

CN1CCN(C(=O)Oc2ccc(-c3coc4cc(OC(=O)N5CCN(C)CC5)ccc4c3=O)cc2)CC1
IC50 [20]: 1.2 µM

CN[C@@H](CCOc1ccc([N+](=O)[O-])cc1)c1ccc(OC(=O)N(C)C)cc1
IC50 [20]: 0.101 µM

CN1CCN(C(=O)Oc2ccc(/C=C/c3cc(OC(=O)N4CCN(C)CC4)cc(OC(=O)N4CCN(C)CC4)c3)cc2)CC1
IC50 [15]: 6.97 µM

COc1ccc2[nH]cc(CCC(=O)CCCCCCNC(=O)Oc3ccc4c(c3)CN3CCc5ccccc5C3N4C)c2c1 (stereo not given)
IC50 [8]: 0.102 µM

C#CCNC1CCc2c(OC(=O)N(C)CC)cccc21 (stereo not given)
IC50 [7]: 2.15 µM
IC50 [12]: 150 µM
IC50 [13]: 0.83 µM
IC50 [14]: 0.019 µM

CC(C)c1ccc(NC(=O)Oc2ccc3c(c2)[C@]2(C)CCN(CCc4ccccc4)[C@@H]2N3C)cc1
Ratio IC50 [9]: > 5000
IC50 [16]: > 30 µM

CCNC(=O)Oc1ccc2c(c1)[C@]1(C)CCO[C@@H]1O2
Ratio IC50 [9]: 60
IC50 [8]: 0.006 µM
IC50 [16]: 0.036 µM

CCCCCCCCNC(=O)Oc1cc(OC(=O)NCCCCCCCC)cc(OC(=O)NCCCCCCCC)c1
IC50 [5]: 0.015 µM

CCCCCCNC(=O)OCn1nc(-c2ccccc2OC)ccc1=O
IC50 [11]: 35 µM

COC(=O)CCC/C=C\C/C=C\C/C=C\CCOC(=O)Nc1ccc(Br)cc1
IC50 [1]: 19.2 µM
Ki [2]: 1.1 µM

CCCCCCCNC(=O)OCCN1CCN(CCCCCOc2ccc3ccc(=O)[nH]c3c2)CC1
IC50 [3]: 1.8 µM
IC50 [5]: 0.39 µM
